Where two headings read alike, the source gives them in different places. Values belong to the compound of their own block, whether it stands above or below them.
Key:
[1] = test system: CYP2C9; assay: Western blot of CYP2C9 protein expression in rat liver
Description: (§1) The rats in all five groups were gavaged once a day for fourteen consecutive days. Groups E and G were gavaged with 150 mg/kg aqueous solution of silybinin (containing 21 mg/kg silybinin), groups F and H were gavaged with 13.5 mg/kg aqueous solution of compound glycyrrhizin (containing 4.5 mg/kg glycyrrhizin), and from the 15-days onwards, groups G and H were given 40 mg/kg of PXD per day for a total of 7-days, and equal amounts of saline were given to groups E and F. Group D was gavaged with equal amounts of saline until the end of the experiment. After gavage for 21 days, rats in each group were anesthetized with 10% urethane, and their fresh livers were snap-frozen in liquid nitrogen and stored at −80°C for subsequent experiments.
(§2) Fresh livers were removed at −80°C and weighed portions were homogenized in ep tubes with lysis buffer containing 0.1% PMSF. We prepared 12% SDS-PAGE routine gel, then each group took the corresponding protein samples and prestained Marker samples, 80 V constant voltage for 90 min, the voltage was adjusted to 120 V, and electrophoresis was continued for 30 min. […] Imaging was performed using Imgage-ProPlus 6.0 software and quantitative analysis was performed using Image J software.

[2] = test system: CYP3A4; assay: Western blot of CYP3A4 protein expression in rat liver
Description: as §1, §2

[3] = Pharmacokinetics of PXD in rat plasma (HPLC-UV) after 14 days pretreatment with saline, silybinin or CG; format: in vivo, rats; conditions: for Cmax / Tmax / half-life / CL/F / Vd/F: rat, plasma, rats, n = 6, mean ± SD; for CL/F: read-out: CLz/F (converted); for Vd/F: read-out: Vz/F
Description: Group B was gavaged with silybinin aqueous solution 150 mg/kg (containing silybinin 21 mg/kg), group C was gavaged with compound glycyrrhizin aqueous solution 13.5 mg/kg (containing glycyrrhizin 4.5 mg/kg), and in contrast, group A was gavaged with an equal amount of saline. After 14-days of administration, three groups were given 40 mg/kg PXD. 0.5 mL of blood was taken from the caudal vein at 0.25, 0.50, 1.00, 2.00, 3.00, 4.00, 6.00, 8.00, 12.00, 24.00, and 48.00 h after being gavaged and added to EP tubes containing heparin, followed by centrifugation at 3500 rpm for 15 min, and finally the supernatant was stored at −20°C and stored for measurement.
The apparatus used in the chromatographic analysis of this work was an 1100 series high-performance liquid chromatography (product of Agilent, USA), which mainly included a vacuum degasser, a four-component infusion pump, an automatic sampler, a column temperature box, and a DAD detector. The fundamental steps were as follows. First of all, the chromatographic separation was carried out on a Venusil C18 column (4.6 mm × 250 mm, 5 μm). Subsequently, the analytes were thoroughly separated under the mobile phase water, acetonitrile, and 0.2% TFA (37 : 43 : 20).
After preparatory 2 ml EP tubes, 300 μL of plasma samples and 15 μL of 10 ng/ml of alpelisib working solution were pipetted separately, followed by 300 μL of 10% sodium carbonate solution, mixed well, and then 1.0 ml of ethyl acetate was included to sediment the proteins. The mixture was vortexed for 2.0 min and subsequently centrifuged at 3500 rpm for 20 min at 4°C. At last, 900 μL of the upper organic phase was transferred to a fresh EP tube, blown dry with an air stream at 50°C, and then redissolved with 100 μL of mobile phase, and 20 μL was sampled for the assay.
In the current study, the drug concentration of PXD in rat plasma was plotted versus the time curve as well as all the bar graphs using GraphPad Prism 8.0 software. Then, DAS (Drug And Statistics) 2.0 software (Shanghai University of Traditional Chinese Medicine, China) was employed to get the main pharmacokinetic parameters of the analytes in nonatrial mode. Then, a one-way analysis of variance (ANOVA) was performed using SPSS (statistical product and service solutions) 25.0 software, while finally, an independent samples t-test was applied to the comparison of major pharmacokinetic parameters between the two groups, where Tmax was tested using rank sum test. Statistical significance was indicated by P < 0.05.

[4] = group B (silybinin pretreatment) compared to group A, P < 0.01
[5] = group B (silybinin pretreatment) compared to group A, P < 0.05
[6] = group C (CG pretreatment) compared to group A, P < 0.05
[7] = po, 40 mg/kg, Group A (control: saline 14 days, then single oral 40 mg/kg PXD)
[8] = po, 40 mg/kg, Group B (silybinin aqueous solution 150 mg/kg, containing silybinin 21 mg/kg, 14 days, then single oral 40 mg/kg PXD)
[9] = Group C (compound glycyrrhizin aqueous solution 13.5 mg/kg, containing glycyrrhizin 4.5 mg/kg, 14 days, then single oral 40 mg/kg PXD)

Structure (SMILES): FC(F)(F)c1ccc(CNc2ccc(Cc3c[nH]c4ncc(Cl)cc34)cn2)cn1 [PXD, Pexidartinib]
effect of PXD on the protein expression of CYP2C9 ([1]; rat, in vivo, 40 mg/kg): inducing effect | effect of PXD on the protein expression of CYP3A4 ([2]; 40 mg/kg PXD per day for 7 days after silybinin or CG): inducing effect | decrease of Vz/F [3, 4]: 31.78% | increase of AUC0⟶t [3, 4]: 28.97% | increase of AUC0⟶∞ [3, 4]: 26.74% | decrease of CLz/F [3, 5]: 20.69% | increase of Cmax [3, 5]: 20.72% | increase of Cmax ([3]; group C (CG pretreatment) compared to group A, P < 0.01): 36.25% | increase of AUC0⟶t [3, 6]: 20.98% | increase of AUC0⟶∞ [3, 6]: 21.22% | Cmax [3, 7]: 10800 ± 1140 ng/mL | Tmax [3, 7]: 4.33 ± 1.37 h | half-life [3, 7]: 9.83 ± 3.13 h | CL/F [3, 7]: 4.83 mL/min/kg | Vd/F [3, 7]: 4.09 ± 1.16 L/kg | Cmax [3, 8]: 13000 ± 1160 ng/mL | Tmax [3, 8]: 4.17 ± 0.98 h | half-life [3, 8]: 8.49 ± 3.3 h | CL/F [3, 8]: 3.83 mL/min/kg | Vd/F [3, 8]: 2.79 ± 1.03 L/kg | Cmax [3, 9]: 14700 ± 2390 ng/mL | Tmax [3, 9]: 4.1 ± 1.1 h | half-life [3, 9]: 5.23 ± 1.13 h | CL/F [3, 9]: 4.17 mL/min/kg | Vd/F [3, 9]: 1.81 ± 0.3 L/kg

protein expression level of CYP2C9 ([1]; rat liver, gavage 21 days, compared with the control group, P < 0.05 and P < 0.01): decreased | protein expression level of CYP3A4 ([2]; gavage 21 days, compared with the control group, P < 0.05 and P < 0.01): decreased
Structure (SMILES): COc1cc(C2Oc3cc([C@H]4Oc5cc(O)cc(O)c5C(=O)[C@@H]4O)ccc3OC2CO)ccc1O (stereo partly drawn) [silybinin, Silybinin]
